These results are taken from patent US20240400986A1, “MEMBRANE BOUND COMPOSITIONS AND METHODS RELATING TO SAME” (FLAGSHIP PIONEERING INNOVATIONS VII, LLC, priority 2021, published 2024).

Counter-ions that a name gives are not always drawn. Like-named read-outs stand apart in the source and are kept apart here.

For data set [1], the system named is neuronal cells. Put plainly: Gigasome-mediated extraction of APP-CTFs upon γ-secretase and proteasome inhibition (fixed plates, confocal). It counts as cell-based, human. The note with it: γ-secretase inhibitor 5 μM, MG-132 0.1 μM, alone or combined; 24 h; compared to DMSO. The protocol: Cells were treated with the γ-secretase inhibitor L-685,458 at 5 μM, either alone or in combination with the proteasome inhibitor MG-132 at 0.1 μM. A vehicular control amount of DMSO was added to the media to comparatively study cargo signals within cells and gigasomes. Treatments were carried out in reduced serum-containing media (3% FBS) for 24 hours. Disease-related cargo presence within cells and in gigasomes was characterized and quantified by confocal microscopy analysis of 4% paraformaldehyde fixed cells, following (immuno)fluorescent labeling of cytosolic, nuclear and cargo-specific protein markers. In some experiments β-III tubulin and Alexa Fluor® 488 phalloidin were used to mark the cytosol and proximal plasma membrane, respectively. To detect APP-CTFs, an antibody against the C-terminus of APP (C-APP) was used (see Table 12). Non-specific labeling was blocked by incubation with 5% normal goat serum in PBS in the presence of 0.05% saponin, for 1 h at room temperature. Primary antibodies were incubated overnight at 4° C., followed by incubation with Alexa Fluor®-conjugated secondary antibodies for 1 hour at room temperature. Nuclei were counterstained with DAPI.
A range of 5-8 images per well were taken from replicate experiments to capture a final total range of 150-200 cells. […] The cellular cargo fluorescence intensity in the red channel was quantified by subtracting the background signal from each image, using the ImageJ built-in “subtract background” function with a default rolling ball radius of 50 pixel. The cargo signal (integrated density) in the red channel was measured and normalized to the number of nuclei counted in each field. […]
For particle analysis, the cytosolic and F-actin/membrane signals were merged into single RGB image, converted to grayscale and then thresholded to create a cellular mask of objects in the field of view, as calculated by the “Li” autothreshold algorithm. […] The quantity or distribution of objects obtained from the particle analysis was divided by the number of cells counted in each field to obtain a normalized quantity or distribution.

Data set [2] deals with neuronal cell line derived from human neuroblastoma. The note with it: neuronal cells, 24 hours.
Data set [3] shares this test system.
For data set [4] the test system is unchanged. Put plainly: Small molecule compound screen of gigasome production in neuronal monocultures. The note with it: for Number of Gigasomes Produced: neuronal cells, 24 hours.
For data set [5], the system named is neuronal cells. Put plainly: Gigasome-mediated extraction of stress granule-associated protein HuR (fixed plates, confocal). It is filed as cell-based, human. The note with it: 5 μM sodium arsenite, 0.2 μM MG-132, alone or combined, 24 h. As for the experimental part: For this paradigm, cells were treated with a low sodium arsenite concentration of 5 μM either alone or in combination with the proteasome inhibitor MG-132 at 0.2 μM. A vehicular control amount of DMSO was added to the media to comparatively study cargo signals within cells and gigasomes. Treatments were carried out in reduced serum-containing media for 24 hours to mimic a chronic exposure to arsenite. The presence of the stress-granule-related cargo within cells and in gigasomes was characterized and quantified by confocal microscopy analysis of 4% paraformaldehyde. Non-specific labeling was blocked by incubation with 5% normal goat serum in PBS in the presence of 0.1% Triton X-100, for 2 h at room temperature, followed by immunolabeling with an antibody against the RNA-binding protein HuR (see Table 12) and incubation with Alexa Fluor® 568 secondary antibodies. Phalloidin Alexa Fluor® 488 was used to mark the proximal plasma membrane. Nuclei were counterstained with DAPI.
Images were captured using a Zeiss LSM 900 confocal microscope and a 40× objective. For analysis, 10×16-bit images per well were processed to obtain a final total range of 75-200 cells. Composite images were separated in the different channels. The background was subtracted from the red cargo-related channel, as described in Example 13a. The nuclear signal in the blue channel was thresholded using the “Yen” autothreshold algorithm. To measure the nuclear-to-cytosolic translocation of the stress-granule-related protein cargo upon treatment, firstly, the cargo-related nuclear signal was subtracted from the respective red channel image by creating a nuclear selection from the thresholded blue channel image, which was added to ImageJ Manager. The nuclear selection was then transferred to the background-subtracted red channel and the nuclear cargo signal was removed from the image leaving only the cytosolic signal. The cleared red channel image was thresholded using the “default” autothreshold algorithm for downstream particle analysis. To measure the cytosolic cargo signal, a cellular mask was then generated by thresholding the Green/F-actin channel using the “Li” autothreshold method. A cytosolic selection was created, added to ImageJ Manager, and transferred to the background subtracted, nuclear-cleared red channel image. The cytosolic cargo signal (integrated density) was measured and normalized to the number of nuclei counted in each field. Particle analysis was performed as described in Example 13a, using the thresholded green channel to identify particles of interest by filtering by area and circularity and re-directing to the blue and red channel for absence of nuclear signal and eventual presence of disease-related cargo, respectively. The quantity or distribution of objects obtained from the particle analysis was obtained as described in Example 13a.

In data set [6] the test system is cardiomyocytic cell line derived from human ventricular heart tissue. The experiment in a line: Cell viability in cardiomyocyte compound screen (CellTiter-Glo). It counts as cell-based. The note with it: Table 22, cardiomyocytes, 24 hours.
Source text: Cells were stained with Hoechst 34580, CellTracker Green/CellMask Green Actin and MitoTracker Deep Red to detect nuclear material, cytoplasm/F-actin, and mitochondria, respectively, and cultured in poly-L-lysine-coated 96-well glass bottom plates at 15,800 cells/cm^2 and allowed to adhere overnight. For the screening, a total of 100 randomly organized compounds (TargetMol) were divided in 5 groups. Each group included an untreated condition, a vehicular DMSO control, and a known high-gigasome producing condition to comparatively study gigasome production rates. As a cell death control group, 500 nM Staurosporine was added to induce apoptosis. Cultures were incubated for 24 hours under gigasome inducing conditions at concentrations ranging between 10 nM and 10,000 nM. […] Cells remaining in the 96-well plates were assessed for viability using CellTiter-Glo (Promega).
The test system is the same in data set [7]. Put plainly: Small molecule compound screen of gigasome production in cardiomyocytic monocultures.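 For all read-outs here: gigasomes shed into the culture medium were imaged by confocal microscopy and counted as round particles lacking nuclear signal, extrapolated to the whole well, fold change is relative to DMSO vehicle.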 The note with it: for Number of Gigasomes Produced: Table 22, cardiomyocytes, 24 hours.
Procedure: For the screening, a total of 100 randomly organized compounds (TargetMol) were divided in 5 groups. Each group included an untreated condition, a vehicular DMSO control, and a known high-gigasome producing condition to comparatively study gigasome production rates. As a cell death control group, 500 nM Staurosporine was added to induce apoptosis. Cultures were incubated for 24 hours under gigasome inducing conditions at concentrations ranging between 10 nM and 10,000 nM. […] The Zeiss ZEN Blue software was used to distribute imaging fields of view (positions) to create an unbiased imaging sample of a well. 5 images were taken using a Zeiss LSM 900 confocal microscope. […] The BioApps ZEN software package was used to perform cell nucleus segmentation and counting. After 24 hours, gigasomes were harvested from the cell culture media by gently removing from the top of each 96-well ⅔ of the total volume without disturbing the cell layer (containing the settled gigasomes) and by adding to each well the same amount of PBS containing 0.5 mM EDTA. The wells were washed twice gently, and the gigasome-containing media/0.5 mM EDTA PBS wash was transferred into the well of a 384-well glass bottom plate. Cells remaining in the 96-well plates were assessed for viability using CellTiter-Glo (Promega).
For gigasome analysis in 384-well plates, the Zeiss ZEN Blue software was used to distribute positions to create an unbiased imaging sample of a well. 6 images per well were taken using a Zeiss LSM 900 confocal microscope. […] A watershed binary segmentation step was performed to separate grouped objects. For each particle in the mask, characteristic parameters of the particle were calculated and saved. […] Particles of interest were identified by thresholding by area and circularity. […] Circularity, defined by the formula 4pi(area/perimeter^2, was set to be between 0.8, where a value of 1.0 is a perfect circle, and a value of 0 is a line. Gigasomes were identified from the particles of interest by thresholding by mean nuclear signal. The nuclear signal threshold was set using a value equal to one quarter of a threshold value calculated by the Li auto-threshold algorithm applied to the distribution of all particles of interest. Particles of interest with nuclear signal below this value were considered “negative” for nuclear material and were identified as gigasomes. A sampling factor was calculated to extrapolate the total quantity of a type of object (particles, particles of interest, gigasomes) in the well. The sampling factor was the percentage of the well's area that was imaged. […] In some experiments, the number of cells in the cell cultures were estimated with a cell counter. […] The normalized quantity or distribution of objects was described as a quantity or distribution of objects per 1000 cells.
[8] abbreviates: Homo sapiens, 24 h, read-out: Fold Change of Gigasomes Produced vs. DMSO.
[9] abbreviates: Homo sapiens, Cardiomyocyte, 24 h, read-out: Fold Change of Gigasomes Produced vs. DMSO.

`CC(C)C[C@H](NC(=O)[C@H](Cc1ccccc1)C[C@@H](O)[C@H](Cc1ccccc1)NC(=O)OC(C)(C)C)C(=O)N[C@@H](Cc1ccccc1)C(N)=O` [γ-secretase inhibitor, L-685,458]: in the data set on neuronal cells [1], the “intracellular APP-CTF levels (C-APP immunoreactivity)” value is “increase”.
`Cn1cncc1[C@@](N)(c1ccc(Cl)cc1)c1ccc2c(c1)c(-c1cccc(Cl)c1)cc(=O)n2C` [Tipifarnib]: the “Number of Gigasomes Produced” value in data set [2] (dose 10 nM) is given as less than 35; in data set [2] (dose 100 nM), 55-65; in data set [2] (dose 1000 nM), 65-75. The Viability was greater than 75% in data set [3] (human, 24 h, 10 nM); greater than 75% in data set [3] (human, 24 h, 100 nM); 50-75% in data set [3] (human, 24 h, 1000 nM). For the same compound, in data set [4] (setting [8]), the fold induction at 0.01 µM lay in the range of 0.75 to 1. Further, the fold induction at 0.1 µM in data set [4] (setting [8]) is 1.5 to 1.75. Besides, the fold induction at 1 µM in data set [4] (setting [8]) fell in the range of 1.75 to 2.
Consider `O=[As]O` [sodium arsenite], for which the HuR cytosolic signal result in the data set on neuronal cells [5] (compared to DMSO (FIG. 7B)) is recorded as “increased”. Besides, in the data set on neuronal cells [5] (fixed plates (FIG. 7C)), the “gigasomes per 1000 cells” value is given as 200 per 1000 cells.
Consider `CC[C@@]1([C@@H]2O[C@@H]([C@H]3O[C@@](O)(CO)[C@H](C)C[C@@H]3C)C[C@@H]2C)CC[C@H]([C@]2(C)CC[C@]3(C[C@H](O)[C@@H](C)[C@@H]([C@@H](C)[C@@H](OC)[C@H](C)C(=O)O)O3)O2)O1` [Monensin sodium salt], for which the Viability in data set [6] (dose 10 nM) was greater than 75%; in data set [6] (dose 100 nM) it was greater than 75%; in data set [6] (dose 1000 nM), 50-75%; in data set [3] (neuronal cells, dose 10 nM, 24 hours) it was greater than 75%; in data set [3] (neuronal cells, dose 100 nM, 24 hours) it was greater than 75%; in data set [3] (neuronal cells, dose 10000 nM, 24 hours), 50-75%. In addition, the results for the fold induction at 0.01 µM in data set [4] (setting [8]) and in data set [7] (setting [9]) were 0.75 to 1 and 1.25 to 1.5, respectively. Moreover, the fold induction at 0.1 µM in data set [4] (setting [8]) is 1.75 to 2; in data set [7] (setting [9]), 1.25 to 1.5. Also, in data set [4] (setting [8]), the fold induction at 10 µM lay within 1.5 to 1.75. The “Number of Gigasomes Produced” value in data set [4] (dose 10 nM) was less than 35; in data set [4] (dose 100 nM), 55-65; in data set [4] (dose 10000 nM) it was 55-65; in data set [7] (dose 10 nM), 150-175; in data set [7] (dose 100 nM), 150-175; in data set [7] (dose 1000 nM), 250-275. In addition, the fold induction at 1 µM in data set [7] (setting [9]) fell in the range of 2 to 3.
